Results as given in US8293786B2 (Alltranz Inc., priority 2007, dated 2012).

Columns and labels:
[1] = test system: human abdominal skin; test: In vitro human skin permeation and skin disposition, flow-through diffusion cells (Examples 2, 2A, 2B); format: in vitro ADME; details: for Flux enhancement: total cannabidiol versus cannabidiol; for 30 h skin conc: Table 17
Protocol: Flow through diffusion cells were used for the permeation studies. HEPES-buffered Hanks' balanced salts containing 40% PEG 400 with gentamicin or 40% aqueous PEG 400 with gentamicin were used for the receiver compartment. Donor solution was comprised of 90:8:2 PG:H2O:IPM solution or gel formulation. […] Drug accumulation in the skin after a 24, 30 or 42 h diffusion experiment was determined as μmol/g wet tissue weight.
The skin samples used in the following experiments were obtained from abdominal reduction surgery and dermatomed to a thickness of approximately 200 μm. The skin samples used herein were frozen at −20° C. for less than six months.
One (1) L of receiver fluid was prepared by measuring 1 L of nanopure water into a graduated cylinder. 90% of the water was added to an Erlenmeyer flask. Hanks' salts (1 bottle) were added to the water along with 5.96 g of HEPES and 0.35 g of sodium bicarbonate. The pH of the solution was adjusted with 1 N sodium hydroxide solution to pH 7.4. The remaining water was added and the receiver fluid was filtered through a 0.2μ filter (Millipore, Billerica, Mass.). Fifty (50) mg of gentamicin was added to the filtered receiver fluid and 400 mL of the receiver fluid was removed and replaced with 400 mL of PEG 400.
The receiver fluid was prepared by measuring 600 mL of nanopure H2O into a graduated cylinder. The H2O was filtered through a 0.2μ filter (Millipore, Billerica, Mass.). Fifty (50) mg of gentamicin was added to the filtered H2O and 400 mL of PEG 400 was added.
The prodrugs were made up in a solution of 45:4:1 PG:H2O:IPM. For this solution, the appropriate amount of drug was weighed into a glass silanized culture tube and IPM was added, the 50 μL of PG to coat the drug, then an additional 247 μL PG was added and the donor solution was vortexed again. Finally 26 μL of water was added. The gel formulation resulted from the mixing of absolute ethanol, nanopure water, IPM, Carbopol® 980, 0.1 N sodium hydroxide solution and the respective drug.
The gel formulation was comprised of absolute ethanol, nanopure water, IPM, Carbopol® 980, 0.1 sodium hydroxide solution and respective drug. The anhydrous gel was comprised of absolute ethanol, PEG monoethyl ether 550, Klucel® hydroxypropylcellulose, and respective drug.
Dermatomed skin harvested from abdominoplasty, stored at −20° C., was used for the experiments. A PermeGear flow-through (In-Line, Hellertown, Pa.) diffusion cell system was used for the skin permeation studies.
Diffusion cells were kept at 32° C. with a circulating water bath. Human epidermal skin was arranged in the diffusion cell with stratum corneum (upper layer of skin) facing the donor compartment. The permeation area of the skin was 0.95 cm^2. The data was collected from a human skin donor with three diffusion cells per treatment.
The receiver solution was HEPES-buffered Hanks' balanced salts with gentamicin containing 40% PEG 400 at a pH of 7.4 or 40% aqueous PEG 400 and flow rate was adjusted to 0.8 mL/h. Each cell was charged with 0.10 mL of the respective drug formulation (donor solution) or 50 μL of gel formulation which was rubbed into the skin for 15 sec with a Teflon coated rod. The formulation was applied to ensure complete coverage. […]. Diffusion cells were covered with a stopper or cap for the duration of the study.
Samples were collected into scintillation vials in 3 h increments for either 24, 30, or 42 h. All the samples were stored at 4° C. until extracted. An aliquot (0.5 mL) of the diffusion sample was placed into a silanized HPLC vial and 0.5 mL of acetonitrile was added to the sample, capped and vortexed.
At the end of the experiment, the skin tissue was removed from the diffusion cell, rinsed with nanopure water, and blotted dry with a paper towel. The skin was tape stripped twice using book tape (Scotch™, 3M, St. Paul, Minn.) to remove drug formulation adhering to the tissue surface.

[2] = Plasma stability of cannabidiol prodrugs (bioconversion to parent drug); format: in vitro ADME; details: for % Prodrug at time (h): mono-prodrug in plasma; for % mono-prodrug at time (h) / % Di-prodrug at time (h): di-prodrug in plasma; for % mono-prodrug at time (h): mono-prodrug formed
Protocol: An approximated 1 mg/mL stock solution of each prodrug was prepared in 100 μL of ethanol and 900 μL of acetonitrile. Ten (10) μL of stock was spiked into 1 mL of plasma and vortexed. The samples were kept sealed in an amber vial and samples were obtained to analyze for bioconversion to parent drug.

[3] = Table 23, gel formulation, 40% aqueous PEG 400 receiver fluid, CBD from applied prodrug
[4] = Table 23, gel formulation, 40% aqueous PEG 400 receiver fluid, as applied compound (CBD or intact prodrug)
[5] = Table 23, gel formulation, 40% aqueous PEG 400 receiver fluid, prodrug applied, as total cannabidiol equivalents
[6] = 90:8:2 PG:H2O:IPM donor solution, 40% aqueous PEG 400 receiver fluid, as applied compound (CBD or intact prodrug)
[7] = 90:8:2 PG:H2O:IPM donor solution, 40% aqueous PEG 400 receiver fluid, prodrug applied, as total cannabidiol equivalents
[8] = Table 16, 90:8:2 PG:H2O:IPM donor solution, 60/40 Hanks'/PEG 400 receiver fluid, CBD from applied prodrug
[9] = Table 16, 90:8:2 PG:H2O:IPM donor solution, 60/40 Hanks'/PEG 400 receiver fluid, as applied compound (CBD or intact prodrug)
[10] = Table 16, 90:8:2 PG:H2O:IPM donor solution, 60/40 Hanks'/PEG 400 receiver fluid, prodrug applied, as total cannabidiol equivalents
[11] = Table 16, 90:8:2 PG:H2O:IPM donor solution, 60/40 Hanks'/PEG 400 receiver fluid
[12] = Table 16, 90:8:2 PG:H2O:IPM donor solution, 60/40 Hanks'/PEG 400 receiver fluid, mono-prodrug (ALL00131) from applied di-prodrug

## C=C(C)[C@@H]1CCC(C)=C[C@H]1c1c(O)cc(CCCCC)cc1OC(=O)CO [ALL00149, CBD Glycolate]
[1]; [3]
  24 h cumulative amt: 1.2 nmol
  24 h skin conc: 0.9 ± 0.0 µmol/g
[1]; [4]
  24 h cumulative amt: 5.8 nmol
  24 h skin conc: 46.0 ± 11.5 µmol/g
  Flux: 0.29 nmol/cm^2/h
  Lag time: 6.4 h
[1]; [5]
  24 h cumulative amt: 6.9 nmol
  24 h skin conc: 46.3 ± 11.8 µmol/g
  Flux: 0.40 nmol/cm^2/h
  Lag time: 6.2 h
[1]; Table 23, gel formulation, 40% aqueous PEG 400 receiver fluid
  Flux enhancement: 1.4
[1]; in gel formulation
  detected in the skin as: primarily ALL00149 with a trace amount of cannabidiol
  lag time compared to cannabidiol: lower
  permeated through the skin as: primarily ALL00149 with a trace amount of cannabidiol
  total skin concentrations compared to cannabidiol: higher
[1]; in gel formulation, unit not given
  increase of the flux compared to cannabidiol: 1.4
[2]; Table 24, 0 h
  % Prodrug at time (h): 100%
[2]; Table 24, 0.5 h
  % Prodrug at time (h): 31%
[2]; Table 24, 1 h
  % Prodrug at time (h): 12%
[2]; Table 24, 2 h
  % Prodrug at time (h): 0%

## C=C(C)[C@@H]1CCC(C)=C[C@H]1c1c(OC(C)=O)cc(CCCCC)cc1OC(C)=O [ALL00142, CBD Diacetate]
[1]; [6]
  30 h skin conc: 5.5 ± 0.3 µmol/g
[1]; [7]
  30 h skin conc: 5.5 ± 0.3 µmol/g
[1]; in donor solution
  detected in the skin as: only as intact prodrug
  permeated through the skin as: did not permeate through the skin or was below detection in the receiver samples
  total skin concentrations compared to cannabidiol: not higher
[2]; Table 20, 1 h
  % mono-prodrug at time (h): 0%
  % Di-prodrug at time (h): 98%
[2]; Table 20, 3 h
  % mono-prodrug at time (h): 0%
  % Di-prodrug at time (h): 90%
[2]; Table 20, 24 h
  % mono-prodrug at time (h): 0%
  % Di-prodrug at time (h): 10%
[2]; Table 20, 0 h
  % Di-prodrug at time (h): 100%

## C=C(C)C1CCC(C)=CC1c1c(O)cc(CCCCC)cc1OC(=O)COCCOCCOC (stereo not drawn) [ALL00140, CBD 2-[2-(2-methoxyethoxy)ethoxy]acetate]
[1]; [8]
  42 h cumulative amt: 24.1 ± 3.3 nmol
  42 h skin conc: 0.5 ± 0.3 µmol/g
  Flux: 0.9 ± 0.1 nmol/cm^2/h
  Lag time: 9.0 ± 2.7 h
[1]; [9]
  42 h cumulative amt: 34.3 ± 15.5 nmol
  42 h skin conc: 12.7 ± 6.6 µmol/g
  Flux: 1.3 ± 0.5 nmol/cm^2/h
  Lag time: 12.6 ± 2.5 h
[1]; [10]
  42 h cumulative amt: 58.1 ± 15.5 nmol
  42 h skin conc: 13.2 ± 6.9 µmol/g
  Flux: 2.2 ± 0.5 nmol/cm^2/h
  Lag time: 11.2 ± 2.2 h
[1]; [11]
  Flux enhancement: 0.33
[1]; in donor solution
  detected in the skin as: mostly as prodrug in the skin with small amounts of cannabidiol
  flux compared to cannabidiol: did not increase the flux
  lag time compared to cannabidiol: slightly decreased
  permeated through the skin as: intact prodrug and cannabidiol
  total skin concentrations compared to cannabidiol: not higher
[2]; Table 20, 0 h
  % Prodrug at time (h): 100%
[2]; Table 20, 2 h
  % Prodrug at time (h): 0%
[2]; Table 20, 20 h
  % Prodrug at time (h): 0%
[2]; Table 20, 24 h
  % Prodrug at time (h): 0%

## C=C(C)[C@@H]1CCC(C)=C[C@H]1c1c(O)cc(CCCCC)cc1OC(=O)[C@@H](O)CO [ALL00137, CBD (S)-2,3-dihydroxypropanoate]
[1]; 90:8:2 PG:H2O:IPM donor solution, 40% aqueous PEG 400 receiver fluid, CBD from applied prodrug
  30 h skin conc: 0.3 ± 0.0 µmol/g
[1]; [6]
  30 h skin conc: 0.9 ± 0.3 µmol/g
[1]; [7]
  30 h skin conc: 1.0 ± 0.5 µmol/g
[1]; in donor solution
  detected in the skin as: prodrug and trace amounts of cannabidiol
  permeated through the skin as: did not permeate through the skin or was below detection in the receiver samples
  total skin concentrations compared to cannabidiol: not higher
[2]; Table 20, 0 h
  % Prodrug at time (h): 89%
[2]; Table 20, 1 h
  % Prodrug at time (h): 73%
[2]; Table 20, 3 h
  % Prodrug at time (h): 60%
[2]; Table 20, 24 h
  % Prodrug at time (h): 4%

## C=C(C)[C@@H]1CCC(C)=C[C@H]1c1c(OC(=O)COCCOCCOCCOC)cc(CCCCC)cc1OC(=O)COCCOCCOCCOC [ALL00132, CBD di(3,6,9,12-tetraoxatridecanoate)]
[1]; [8]
  42 h cumulative amt: 10.0 ± 0.4 nmol
  Flux: 0.4 ± 0.1 nmol/cm^2/h
  Lag time: 11.8 ± 4.2 h
[1]; [9]
  42 h cumulative amt: 26.4 ± 17.0 nmol
  42 h skin conc: 2.9 ± 1.3 µmol/g
  Flux: 1.4 ± 0.4 nmol/cm^2/h
  Lag time: 19.2 ± 4.9 h
[1]; [12]
  42 h cumulative amt: 23.0 ± 7.1 nmol
  42 h skin conc: 0.6 ± 0.1 µmol/g
  Flux: 0.8 ± 0.2 nmol/cm^2/h
  Lag time: 9.1 ± 3.3 h
[1]; [10]
  42 h cumulative amt: 59.5 ± 23.8 nmol
  42 h skin conc: 3.5 ± 1.7 µmol/g
  Flux: 2.6 ± 0.5 nmol/cm^2/h
  Lag time: 14.9 ± 3.8 h
[1]; [11]
  Flux enhancement: 0.40
[1]; in donor solution
  detected in the skin as: prodrug and small amounts as mono-substituted prodrug, ALL00131
  flux compared to cannabidiol: did not increase the flux
  lag time compared to cannabidiol: wasn't decreased
  permeated through the skin as: intact prodrug, mono-substituted prodrug (ALL00131), and cannabidiol
  total skin concentrations compared to cannabidiol: not higher
[2]; Table 20, 1 h
  % mono-prodrug at time (h): 52%
  % Di-prodrug at time (h): 28%
[2]; Table 20, 2 h
  % mono-prodrug at time (h): 44%
  % Di-prodrug at time (h): 15%
[2]; Table 20, 4 h
  % mono-prodrug at time (h): 24%
  % Di-prodrug at time (h): 0%
[2]; Table 20, 6 h
  % mono-prodrug at time (h): 15%
  % Di-prodrug at time (h): 0%
[2]; Table 20, 24 h
  % mono-prodrug at time (h): 2%
  % Di-prodrug at time (h): 0%
[2]; Table 20, 0 h
  % Di-prodrug at time (h): 100%
